# Laboratory results: patent publication US8642801B2 (BHI Limited Partnership, priority 2003, dated 2014)
# Target: T1, Aβ40 and Aβ42 peptides in plasma and brain of TgCRND8 mice (Homo sapiens, UniProt P05067)
# T1 construct: ELISA using Human Aβ40 and Aβ42 Fluorometric ELISA kits from Biosource; from tissue; host or cells: plasma and brain homogenate of TgCRND8 transgenic mice (hAPP transgene)
# Test: Short term treatment in adult transgenic CRND8 mice overexpressing βAPP: Aβ levels in plasma and brain by ELISA
# Type: in vivo, Mouse
# Settings: TgCRND8 mice
# From the text: Transgenic mice, […]8, expressing the human amyloid precursor protein (hAPP) develop a pathology resembling Alzheimer's disease. In particular, high levels of Aβ40 and Aβ 42 have been documented in the plasma and the brain of these animals at 8-9 weeks of age, followed by early accumulation of amyloid plaques similar to the senile plaques observed in AD patients. These animals also display progressive cognitive deficits that parallel the appearance of degenerative changes. See, […], et al., J. Biol. Chem. 276, 21562-70 (2001). The short term therapeutic effect of 19 compounds of the invention was studied. […] The following abbreviations are used to designate these animals from the 3rd and 4th generation backcross in the present protocol: TgCRND8-2.B6C3F1(N3); TgCRND8-2.B6C3F1(N4). Baseline animals (Group 1) consisted of naive TgCRND8-2. B6C3F1(N3) at 11±1 weeks of age. These mice were used to determine the Aβ levels in the plasma and brain of naive transgenic animals at the initiation of treatment. […] At the end of the treatment periods, plasma and perfused brains were collected for quantification of Aβ levels. […] Plasma samples were immediately frozen and stored at -80° C. pending analysis. The brains were removed, frozen, and stored at -80° C. awaiting analysis. […] Samples were spun at 15000 g for 20 minutes and the supernatants were transferred to fresh tubes. […] The tubes were vortexed for 30 seconds and frozen at -80° C. […] Samples were thawed at room temperature, sonicated at 80° C. for 15 minutes and frozen again. This cycle was repeated 3 times to ensure homogeneity and samples were returned to -80° C. pending analysis. Aβ levels were evaluated in plasma and brain samples by ELISA using Human Aβ40 and Aβ42 Fluorometric ELISA kits from Biosource (Cat. […] In short, samples were thawed at room temperature, sonicated for 5 minutes at 80° C. (sonication for brain homogenates; no sonication for plasma samples) and kept on ice. Aβ peptides were captured using 100 μl of the diluted samples to the plate and incubated without shaking at 4° C. overnight. The samples were aspirated and the wells were rinsed 4 times with wash buffer obtained from the Biosource ELISA kit. The anti-Aβ40 or anti-Aβ42 rabbit polyclonal antiserum (specific for the Aβ40 or Aβ42 peptide) was added (100 μl) and the plate was incubated at room temperature for 2 hours with shaking. The wells were aspirated and washed 4 times before adding 100 μl of the alkaline phosphatase labeled anti-rabbit antibody and incubating at room temperature for 2 hours with shaking. The plates were then rinsed 5 times and the fluorescent substrate (100 μl) was added to the plate. The plate was incubated for 35 minutes at room temperature and the plate was read using a titer plate reader at an excitation wavelength of 460 nm and emission at 560 nm Compounds were scored based on their ability to modulate levels of Aβ peptides in the plasma and the cerebral soluble/insoluble levels in the brain. Levels of Aβ observed in the plasma and brain of treated animals were normalized using values from vehicle-treated (water) or methylcellulose-treated control groups and ranked according to the strength of the pharmacological effect. Increases in the levels of Aβ peptides are indicated using “+” symbols, while decreases in the levels of Aβ peptides are indicated using “-” symbols. The strongest effects are recorded as “+++” or “- - -” while the weakest are shown as “+” or “-”.
# [1] = Brain Homogenate Methylcellulose Group, Day 14, 250 mg/kg daily oral
# [2] = Brain Homogenate Methylcellulose Group, Day 28, 250 mg/kg daily oral
# [3] = Plasma Methylcellulose Group, Day 28, 250 mg/kg daily oral in 1% methylcellulose, normalized to methylcellulose control
# [4] = Brain Homogenate Vehicle Group, Day 14, 250 mg/kg daily
# [5] = Brain Homogenate Vehicle Group, Day 28, 250 mg/kg daily
# [6] = Plasma Vehicle Group, Day 14, 250 mg/kg daily subcutaneous, normalized to water vehicle control
smiles,measurement,setting,value
"O=S(=O)(O)CCCNC1C2CC3CC(C2)CC1C3 (stereo not drawn) [BZ, 3-(2-adamantyl)amino-1-propanesulfonic acid]",Brain homogenate Aβ40 Change Insoluble,[1],−−− (decreases of 39% or more are scored as “− − −”)
same,Brain homogenate Aβ42 Change Insoluble,[1],−− (decreases of 20 to 38% are scored as “− −”)
same,Brain homogenate Aβ40 Change Insoluble,[2],−− (decreases of 20 to 38% are scored as “− −”)
same,Brain homogenate Aβ40 Change Soluble,[2],−− (decreases of 20 to 38% are scored as “− −”)
same,Brain homogenate Aβ42 Change Insoluble,[2],−− (decreases of 20 to 38% are scored as “− −”)
same,Plasma Aβ40 Change,"Plasma Methylcellulose Group, Day 14, 250 mg/kg daily oral in 1% methylcellulose, normalized to methylcellulose control",+ (increases in the levels of Aβ (relative to untreated control) of 20 to 39% are scored as “+”)
same,Plasma Aβ40 Change,[3],++ (increases of 40 to 69% are scored as “++”)
same,Plasma Aβ42 Change,[3],++ (increases of 40 to 69% are scored as “++”)
"O=S(=O)(O)CCCNC12CC3CC(CC(C3)C1)C2 [BW, 3-(1-adamantyl)amino-1-propanesulfonic acid]",Brain homogenate Aβ40 Change Insoluble,[1],−−− (decreases of 39% or more are scored as “− − −”)
same,Brain homogenate Aβ42 Change Insoluble,[1],−−− (decreases of 39% or more are scored as “− − −”)
same,Brain homogenate Aβ42 Change Soluble,[1],−− (decreases of 20 to 38% are scored as “− −”)
same,Brain homogenate Aβ40 Change Insoluble,[2],− (Decreases in the levels of Aβ of 5 to 19% are scored as “−”)
same,Brain homogenate Aβ40 Change Soluble,[2],− (Decreases in the levels of Aβ of 5 to 19% are scored as “−”)
same,Brain homogenate Aβ42 Change Insoluble,[2],−− (decreases of 20 to 38% are scored as “− −”)
same,Brain homogenate Aβ42 Change Soluble,[2],− (Decreases in the levels of Aβ of 5 to 19% are scored as “−”)
same,Plasma Aβ42 Change,[3],+ (increases in the levels of Aβ (relative to untreated control) of 20 to 39% are scored as “+”)
"CC(C)(C)NCCCS(=O)(=O)O [BX, 3-(t-butyl)amino-1-propanesulfonic acid]",Brain homogenate Aβ40 Change Insoluble,[4],−−− (decreases of 39% or more are scored as “− − −”)
same,Brain homogenate Aβ40 Change Soluble,[4],− (Decreases in the levels of Aβ of 5 to 19% are scored as “−”)
same,Brain homogenate Aβ42 Change Insoluble,[4],−−− (decreases of 39% or more are scored as “− − −”)
same,Brain homogenate Aβ42 Change Soluble,[4],−− (decreases of 20 to 38% are scored as “− −”)
same,Brain homogenate Aβ40 Change Insoluble,[5],−−− (decreases of 39% or more are scored as “− − −”)
same,Brain homogenate Aβ40 Change Soluble,[5],−−− (decreases of 39% or more are scored as “− − −”)
same,Brain homogenate Aβ42 Change Insoluble,[5],− (Decreases in the levels of Aβ of 5 to 19% are scored as “−”)
same,Brain homogenate Aβ42 Change Soluble,[5],−− (decreases of 20 to 38% are scored as “− −”)
same,Plasma Aβ40 Change,[6],+++ (increases of 70% or higher are scored as “+ + +”)
same,Plasma Aβ42 Change,[6],++ (increases of 40 to 69% are scored as “++”)
same,Plasma Aβ40 Change,"Plasma Vehicle Group, Day 28, 250 mg/kg daily subcutaneous, normalized to water vehicle control",+++ (increases of 70% or higher are scored as “+ + +”)
